What all share (assay): NCI tumour cell line growth inhibition, 48 h
Experiment [1] relates to NCI-H522.
In experiment [2] the test system is HT-29.
The subject of experiment [3] is RXF 393.
Experiment [4] has as its system NCI-H460.
The subject of experiment [5] is SNB-75.
The subject of experiment [6] is SK-MEL-2.
Experiment [7] has as its system UO-31.
Experiment [8] has as its system ACHN.
Experiment [9] deals with IGROV-1.
Experiment [10] deals with UACC-62.
Experiment [11] has as its system Malme-3M.
Experiment [12] relates to SK-MEL-28.
For experiment [13], the system named is TK-10.
The subject of experiment [14] is LOX IMVI.
The test system of experiment [15] is OVCAR-8.
The test system of experiment [16] is HCT-15.
The test system of experiment [17] is HCC 2998.
The subject of experiment [18] is NCI/ADR-RES.
For experiment [19], the system named is MDA-N.

Molecules are shown by their SMILES.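 Results reflect a 48-hour exposure of cells in 96-well plates to compound at five concentrations. GI50 = concentration required for 50% inhibition of growth.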 The source made the active and inactive calls. Cut-off read from the data, not from the text of the source: active = GI50 up to about 1.1 µM and inactive = higher.

As for `CCOC(=O)c1c(NNc2ccccc2)nc2ccccc2c1-c1ccccc1`, the GI50 in experiment [1] was 30.1 µM (inactive); in experiment [2], 32.3 µM (inactive); in [3], 42 µM (inactive); in experiment [4] it was 28.4 µM (inactive); in experiment [5], 36.8 µM (inactive); in [6] it was 17.2 µM (inactive). For the same compound, the GI50 in [7] was 25.8 µM (inactive); in experiment [8], 39.5 µM (inactive); in experiment [9], 42.4 µM (inactive); in experiment [10], 16.6 µM (inactive); in experiment [11] it was 29.1 µM (inactive); in experiment [12], 34 µM (inactive). For the same compound, the GI50 in [13] is 80.4 µM (inactive); in [14], 20.2 µM (inactive); in experiment [15], 20.4 µM (inactive); in experiment [16], 33 µM; in experiment [17], 55 µM (inactive).

For the compound `Oc1ccc2ccccc2c1CCc1c(O)ccc2ccccc12`, the GI50 is 4.41 µM (inactive) in [2]; 13.6 µM (inactive) in [18]; 11.7 µM (inactive) in experiment [3]; 10.4 µM (inactive) in [4]; 3.66 µM (inactive) in experiment [5]; 13.5 µM (inactive) in experiment [19]. The GI50 is 16.4 µM (inactive) in experiment [8]; 9.29 µM (inactive) in experiment [10]; 13.4 µM (inactive) in experiment [11]; 10.6 µM (inactive) in experiment [12]; 18.6 µM (inactive) in experiment [13]; 14.3 µM (inactive) in experiment [14]. The GI50 was 14.5 µM (inactive) in [15], 14.4 µM in experiment [16] and 3.81 µM (inactive) in experiment [17].

For the compound `CC1(C)[C@@H]2CC[C@@]1(C)[C@@H]1O[C@@H](O[C@@H](CN)c3cc(Cl)c(OCc4ccccc4)c(OCc4ccccc4)c3)C[C@H]21`, the GI50 was 0.186 µM (active) in experiment [1]; 0.151 µM (active) in experiment [2]; 0.15 µM (active) in experiment [3]; 0.163 µM (active) in [5]; 0.152 µM (active) in experiment [19]; 0.173 µM (active) in experiment [6]. Also, the GI50 was 0.173 µM (active) in experiment [7]; 0.169 µM (active) in experiment [8]; 0.179 µM (active) in [9]; 0.183 µM (active) in experiment [11]; 0.19 µM (active) in experiment [12]; 0.177 µM (active) in experiment [13]. In addition, the GI50 in experiment [14] was 0.166 µM (active); in experiment [15], 0.189 µM (active).

`C/C1=C\[C@H](C)C[C@H](C)OC(=O)C[C@H](c2ccc(O)cc2)NC(=O)[C@H](Cc2ccc(O)c(Br)c2)N(C)C(=O)[C@H](C)NC(=O)[C@@H](C)C1`: the GI50 in experiment [1], in [2], in [18], in experiment [5], in experiment [19] and in experiment [6] was > 25 µM (inactive) throughout. Besides, the GI50 in experiment [7], in experiment [8], in experiment [9], in experiment [10], in experiment [11] and in [12] was > 25 µM (inactive) each time. Moreover, the GI50 in [13] was > 25 µM (inactive); in [14], > 25 µM (inactive); in experiment [15] it was > 25 µM (inactive); in experiment [16], above 25 µM.

Turning to `Cc1cccc(NC2=NCCO2)c1Cl`, the GI50 in experiment [2], in experiment [18], in [3], in experiment [4], in experiment [5] and in experiment [7] was > 100 µM (inactive) in each case. Besides, the GI50 in experiment [8], in [9], in experiment [10], in experiment [11], in experiment [12] and in [13] was > 100 µM (inactive) throughout. The GI50 in experiment [15] was > 100 µM (inactive); in experiment [16] it was above 100 µM; in experiment [17], > 100 µM (inactive).

Regarding `NC1CCCCC1.O=C(CP(=O)(O)O)NC(CC(=O)OCc1ccccc1)C(=O)OCc1ccccc1` (centres undefined), the GI50 in [1] was > 100 µM (inactive); in experiment [2], > 100 µM (inactive); in experiment [18], > 100 µM (inactive); in experiment [3], > 100 µM (inactive); in [4], > 100 µM (inactive); in experiment [5], 4.1 µM (inactive). For the same compound, the GI50 in experiment [19] is > 100 µM (inactive); in experiment [6], 4.85 µM (inactive); in experiment [7] it was > 100 µM (inactive); in [8], > 100 µM (inactive); in experiment [9], > 100 µM (inactive); in experiment [10] it was > 100 µM (inactive). For the same compound, the GI50 is > 100 µM (inactive) in experiment [11]; > 100 µM (inactive) in experiment [12]; > 100 µM (inactive) in experiment [15]; above 100 µM in experiment [16]; > 100 µM (inactive) in experiment [17].

Regarding `CCOc1ccccc1NC(=O)CCc1nnc2s/c(=C\CCc3ccccc3)c(=O)n12`, the GI50 in [1], in experiment [2], in [3], in experiment [4], in experiment [5] and in experiment [6] was > 100 µM (inactive) in each case. Moreover, the GI50 in experiment [7], in experiment [8], in experiment [9], in [10], in [11] and in experiment [12] was > 100 µM (inactive) throughout. Further, the GI50 is > 100 µM (inactive) in experiment [13]; > 100 µM (inactive) in [14]; > 100 µM (inactive) in experiment [15]; above 100 µM in [16]; > 100 µM (inactive) in [17].

Regarding `CCc1cccc(CC)c1NC(=O)C1=CNC(C)=C(C(=O)Nc2c(CC)cccc2CC)C1c1ccc(O)c(OC)c1` (centres undefined), the GI50 in experiment [1] was 26.4 µM (inactive); in [2] it was 31.1 µM (inactive); in [3] it was 25.3 µM (inactive); in [4] it was 31.6 µM (inactive); in [5] it was 44.7 µM (inactive); in experiment [6] it was 26.2 µM (inactive). For the same compound, the GI50 in [7] was 29.1 µM (inactive); in experiment [8] it was 32.5 µM (inactive); in experiment [9], 36.8 µM (inactive); in [11], 28.1 µM (inactive); in experiment [12], 33.3 µM (inactive); in [13] it was 47.6 µM (inactive). Moreover, the figures for the GI50 in experiment [14], in [15] and in [17] were 31.5 µM (inactive), 33.7 µM (inactive) and 47.4 µM (inactive), respectively.

In the case of `O=C1C(Cl)C(c2cc(Br)ccc2O)N1n1cnc2ccccc2c1=O` (centres undefined), the GI50 in [1] was 13.2 µM (inactive); in [2], 30.5 µM (inactive); in experiment [3], 28.9 µM (inactive); in [4], 6.62 µM (inactive); in experiment [5] it was 15.2 µM (inactive); in experiment [6] it was 22.1 µM (inactive). The GI50 in experiment [7] was 7.4 µM (inactive); in experiment [8] it was 11.8 µM (inactive); in experiment [9] it was 17.5 µM (inactive); in [10], 11.5 µM (inactive); in experiment [11], 20.5 µM (inactive); in [12], 14.1 µM (inactive). The GI50 was 31.8 µM (inactive) in [13]; 6.64 µM (inactive) in experiment [14]; 12.1 µM (inactive) in experiment [15]; 5.13 µM in [16]; 17.4 µM (inactive) in experiment [17].

For the compound `NC(=O)c1ncn(C2C=CC(CP(=O)(O)O)C2)c1N` (centres undefined), the GI50 in [2], in experiment [18], in [3], in [4], in experiment [5] and in experiment [19] was > 100 µM (inactive) throughout. Also, the GI50 in [6], in [7], in [8], in [9], in experiment [10] and in [11] was > 100 µM (inactive) in each case. For the same compound, the GI50 in experiment [12] was > 100 µM (inactive); in experiment [13], > 100 µM (inactive); in experiment [14] it was > 100 µM (inactive); in experiment [15] it was > 100 µM (inactive); in [16], above 100 µM; in experiment [17] it was > 100 µM (inactive).

For the compound `CN1C(=O)N(C)C(N2CCCC2)c2c1nc1ccccn1c2=O` (centres undefined), the GI50 in experiment [1] is 61 µM (inactive); in experiment [2] it was > 100 µM (inactive); in experiment [3], 49 µM (inactive); in [4], 76.4 µM (inactive); in [5], 45.9 µM (inactive); in experiment [6] it was 29.7 µM (inactive). The GI50 in [7] was > 100 µM (inactive); in experiment [8] it was > 100 µM (inactive); in experiment [9] it was > 100 µM (inactive); in experiment [10], 67 µM (inactive); in [11], > 100 µM (inactive); in [12], > 100 µM (inactive). The GI50 in experiment [13] was > 100 µM (inactive); in experiment [14], 36.5 µM (inactive); in [15], > 100 µM (inactive); in [16], 56.6 µM; in [17], 76.9 µM (inactive).

Take `CC(=O)OC[C@]1(C)CCCC2(C)C1CCC1C=C(C)[C@H]3CCC12C3` (some centres undefined): the GI50 in [1] is 10.6 µM (inactive); in [2], 43.3 µM (inactive); in experiment [3] it was 44.4 µM (inactive); in [4], 33.7 µM (inactive); in experiment [5], 31.8 µM (inactive); in experiment [7], > 100 µM (inactive). Moreover, the GI50 is > 100 µM (inactive) in [8]; > 100 µM (inactive) in experiment [9]; 56.9 µM (inactive) in [10]; > 100 µM (inactive) in experiment [11]; 60.5 µM (inactive) in [12]; > 100 µM (inactive) in experiment [13]. The GI50 in experiment [14] is 47.5 µM (inactive); in experiment [15], > 100 µM (inactive); in experiment [16], 48.3 µM; in experiment [17] it was > 100 µM (inactive).

The values are drawn from ChEMBL document CHEMBL1201862, “PubChem BioAssay data set” (2004).
